As a reminder, the melting point is the temperature of the solid-liquid transition.

Molecules are shown by their SMILES.

In the case of `CN(C)c1ccc(/N=c2\snc3sc(C4COc5ccccc5O4)nn23)cc1` (stereo not shown) [Compound 9], the melting point lay within 206 to 207 °C.

For the compound `Cc1cccc(/N=c2\snc3sc(C4COc5ccccc5O4)nn23)c1` (stereo not shown) [Compound 19], the melting point is 186 to 187 °C.

In turn, `Clc1ccc(/N=c2\snc3sc(C4COc5ccccc5O4)nn23)cc1` (stereo not shown) [Compound 13] yielded a melting point of 204 to 205 °C.

As for `Oc1ccc(/N=c2\snc3sc(C4COc5ccccc5O4)nn23)cc1O` (stereo not shown) [Compound 5], the melting point lay in the range of 201 to 202 °C.

In turn, `Oc1cc(O)cc(/N=c2\snc3sc(C4COc5ccccc5O4)nn23)c1` (stereo not shown) [Compound 3] gave a melting point of 200 to 201 °C.

As to `Oc1ccc(/N=c2\snc3sc(C4COc5ccccc5O4)nn23)c(O)c1` (stereo not shown) [Compound 2], the melting point lay in the range of 201 to 202 °C.

Compound `O=[N+]([O-])c1ccccc1/N=c1\snc2sc(C3COc4ccccc4O3)nn12` (stereo not shown) [Compound 10] gave a melting point of 209 to 210 °C.

As to `Fc1cccc(/N=c2\snc3sc(C4COc5ccccc5O4)nn23)c1` (stereo not shown) [Compound 24], the melting point is 194 to 195 °C.

Consider `Cc1ccccc1/N=c1\snc2sc(C3COc4ccccc4O3)nn12` (stereo not shown) [Compound 15], for which the melting point was in the range of 188 to 189 °C.

As for `Oc1cccc(/N=c2\snc3sc(C4COc5ccccc5O4)nn23)c1O` (stereo not shown) [Compound 22], the melting point is 198 to 199 °C.

Compound `COc1ccc(/N=c2\snc3sc(C4COc5ccccc5O4)nn23)cc1O` (stereo not shown) [Compound 20] gave a melting point of 212 to 213 °C.

As for `Cc1ccc(/N=c2\snc3sc(C4COc5ccccc5O4)nn23)cc1` (stereo not shown) [Compound 16], the melting point lay in the range of 187 to 188 °C.

The compound `O=[N+]([O-])c1ccc(/N=c2\snc3sc(C4COc5ccccc5O4)nn23)cc1` (stereo not shown) [Compound 1] registered a melting point of 210 to 211 °C.

For `Clc1cccc(/N=c2\snc3sc(C4COc5ccccc5O4)nn23)c1` (stereo not shown) [Compound 17], the melting point was 203 to 204 °C.

In turn, `Oc1cc(O)c(/N=c2\snc3sc(C4COc5ccccc5O4)nn23)c(O)c1` (stereo not shown) [Compound 8] displayed a melting point of 214 to 215 °C.

The compound `Fc1ccccc1/N=c1\snc2sc(C3COc4ccccc4O3)nn12` (stereo not shown) [Compound 23] showed a melting point of 193 to 194 °C.

On to `Oc1cccc(/N=c2\snc3sc(C4COc5ccccc5O4)nn23)c1` (stereo not shown) [Compound 7], for which the melting point was 191 to 192 °C.

The compound `Oc1ccc(O)c(/N=c2\snc3sc(C4COc5ccccc5O4)nn23)c1` (stereo not shown) [Compound 6] displayed a melting point of 199 to 200 °C.

As to `COC(=O)c1ccc(/N=c2\snc3sc(C4COc5ccccc5O4)nn23)cc1` (stereo not shown) [Compound 14], the melting point is 216 to 217 °C.

For the origin of these results see publication PMC9627624, “Molecular iodine-promoted oxidative cyclization for the synthesis of 1,3,4-thiadiazole-fused- [1,2,4]-thiadiazole incorporating 1,4-benzodioxine moiety as potent inhibitors of α-amylase and α-glucosidase: In vitro and in silico study” (Frontiers in Chemistry, 2022).
